According to US11180497B2 (ANGEX PHARMACEUTICAL, INC., priority 2017, dated 2021):
pIC50: −log10 of the molar value.

Molecular target: T1, Human IDO (Homo sapiens, UniProt P14902)
T1 construct: High control is Hela cells with IFNγ treatment; endogenous in cells; host or cells: HeLa cells treated with 25 ng/ml IFNγ
Assay: HeLa cell IDO assay (IFNγ-treated cells, N-formylkynurenine by RapidFire/MS/MS)
Assay type: cell-based
Details: 25 ng/ml IFNγ, 200 μM Trp, 48 hours, class symbol

T1 sequence (P14902 whole entry): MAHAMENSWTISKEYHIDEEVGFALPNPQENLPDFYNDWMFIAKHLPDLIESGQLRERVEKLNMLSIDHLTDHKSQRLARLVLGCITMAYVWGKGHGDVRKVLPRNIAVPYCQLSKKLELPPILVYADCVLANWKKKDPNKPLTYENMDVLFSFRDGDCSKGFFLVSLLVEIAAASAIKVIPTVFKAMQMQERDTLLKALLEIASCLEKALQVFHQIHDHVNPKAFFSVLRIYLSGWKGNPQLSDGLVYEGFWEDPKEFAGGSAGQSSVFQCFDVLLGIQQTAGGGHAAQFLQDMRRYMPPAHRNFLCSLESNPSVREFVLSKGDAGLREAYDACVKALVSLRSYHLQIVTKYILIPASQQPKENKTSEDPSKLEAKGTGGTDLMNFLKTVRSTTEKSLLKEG

`O=C(Nc1ccc(Cl)cc1)C1(C2CCC(c3ccnc4ccncc34)CC2)CC1` (mixture of isomers) [Compound 29-6, 1-(4-(1,6-naphthyridin-4-yl)cyclohexyl)-N-(4-chlorophenyl) cyclopropane-1-carboxamide] and `O=C(Nc1ccc(Cl)cc1)C1CC2(CCC(c3ccnc4ccncc34)CC2)C1` (single isomer, unassigned) [Compound 20-8, N-(4-chlorophenyl)-7-(1,6-naphthyridin-4-yl)spiro[3.5]nonane-2-carboxamide] cannot be ordered by pIC50: over 7.00 for the first, over 7.00 for the second.

Going from `O=C(Nc1ccc(Cl)cc1)C1CC12CCC(c1ccnc3ccncc13)CC2` (racemic) [Compound 6-9, N-(4-chlorophenyl)-6-(1,6-naphthyridin-4-yl)spiro[2.5]octane-1-carboxamide] to `O=C(Nc1ccc(Cl)cc1)C1CC2(CCC(c3ccnc4ccncc34)CC2)C1` (single isomer, unassigned) [Compound 20-9, N-(4-chlorophenyl)-7-(1,6-naphthyridin-4-yl)spiro[3.5]nonane-2-carboxamide], the pIC50 falls from over 7.00 to under 6.00.

`O=C(Nc1ccc(Cl)cc1)C1CC12CCC(c1ccnc3ccc(F)cc13)CC2` (single isomer, unassigned) [Compound 1-10, N-(4-chlorophenyl)-6-(6-fluoroquinolin-4-yl)spiro[2.5]octane-1-carboxamide] and `O=C(Nc1ccc(Br)cc1)[C@H]1C[C@]12CC[C@H](c1ccnc3ccc(F)cc31)CC2` (single isomer, unassigned) [Compound 4-4] cannot be ordered by pIC50: over 7.00 for the first, over 7.00 for the second.

Going from `O=C(Nc1ccc(Cl)cc1)C1CC12CCC(c1ccnc3ccc(F)cc13)CC2` (single isomer, unassigned) [Compound 1-11, N-(4-chlorophenyl)-6-(6-fluoroquinolin-4-yl)spiro[2.5]octane-1-carboxamide] to `O=C(Nc1ccc(I)cc1)[C@H]1C[C@]12CC[C@H](c1ccnc3ccc(F)cc31)CC2` (single isomer, unassigned) [Compound 4-5], the pIC50 rises from under 6.00 to over 7.00.

`N#Cc1ccc(NC(=O)[C@H]2C[C@]23CC[C@H](c2ccnc4ccc(F)cc42)CC3)cc1` (single isomer, unassigned) [Compound 4-6] and `O=C(Nc1ccc(Cl)cc1)C1CC12CCC(c1ccnc3ccc(F)cc13)CC2` (stereo not drawn) [Compound 1-9, N-(4-chlorophenyl)-6-(6-fluoroquinolin-4-yl)spiro[2.5]octane-1-carboxamide] cannot be ordered by pIC50: over 7.00 for the first, over 7.00 for the second.

`O=C(Nc1ccc(Cl)cc1F)[C@H]1C[C@]12CC[C@H](c1ccnc3ccc(F)cc31)CC2` (single isomer, unassigned) [Compound 4-7] and `O=C(Nc1ccc(Br)cc1F)[C@H]1C[C@]12CC[C@H](c1ccnc3ccc(F)cc31)CC2` (single isomer, unassigned) [Compound 4-8] cannot be ordered by pIC50: over 7.00 for the first, over 7.00 for the second.

`O=C(Nc1ccc(I)cc1F)[C@H]1C[C@]12CC[C@H](c1ccnc3ccc(F)cc31)CC2` (single isomer, unassigned) [Compound 4-9] and `O=C(Nc1ccc(F)cc1)[C@H]1C[C@]12CC[C@H](c1ccnc3ccc(F)cc31)CC2` [Compound 1-12] cannot be ordered by pIC50: over 7.00 for the first, over 7.00 for the second.

`O=C(Nc1ccc(Cl)cc1)C1CC12CCC(c1ccnc3ccncc13)CC2` (single isomer, unassigned) [Compound 7-6, N-(4-chlorophenyl)-6-(1,6-naphthyridin-4-yl)spiro[2.5]octane-1-carboxamide] and `O=C(N[C@H]1CC2(CC[C@H](c3ccnc4ccncc43)CC2)C1)c1ccc(Cl)cc1` (single isomer, unassigned) [Compound 21-4] cannot be ordered by pIC50: over 7.00 for the first, over 7.00 for the second.

`O=C(Nc1ccc(Cl)cc1)C1CC12CCC(c1ccnc3ccncc13)CC2` (single isomer, unassigned) [Compound 7-7, N-(4-chlorophenyl)-6-(1,6-naphthyridin-4-yl)spiro[2.5]octane-1-carboxamide] and `O=C(N[C@H]1CC2(CC[C@H](c3ccnc4ccncc43)CC2)C1)c1ccc(Cl)cc1` (single isomer, unassigned) [Compound 21-5] cannot be ordered by pIC50: under 6.00 for the first, under 6.00 for the second.

`O=C(NC1CC12CCC(c1ccnc3ccc(F)cc13)CC2)c1ccc(Cl)cc1` (single isomer, unassigned) [Compound 9-4, 4-chloro-N-(6-(6-fluoroquinolin-4-yl)spiro[2.5]octan-1-yl)benzamide] and `O=C(NC1CC2(CCC(c3ccnc4ccc(F)cc34)CC2)C1)c1ccc(Cl)cc1` (single isomer, unassigned) [Compound 17-6, 4-chloro-N-(7-(6-fluoroquinolin-4-yl)spiro[3.5]nonan-2-yl)benzamide] cannot be ordered by pIC50: over 7.00 for the first, over 7.00 for the second.

First: O=C(NC1CC12CCC(c1ccnc3ccc(F)cc13)CC2)c1ccc(Cl)cc1 (single isomer, unassigned) [Compound 9-5, 4-chloro-N-(6-(6-fluoroquinolin-4-yl)spiro[2.5]octan-1-yl)benzamide]
Second: O=C(NC1CC2(CCC(c3ccnc4ccc(F)cc34)CC2)C1)c1ccc(Cl)cc1 (single isomer, unassigned) [Compound 17-7, 4-chloro-N-(7-(6-fluoroquinolin-4-yl)spiro[3.5]nonan-2-yl)benzamide]
The pIC50 of the first is lower: under 6.00 for the first, 6.00 to 7.00 for the second.

`CC1(C(=O)Nc2ccc(Cl)cc2)CC12CCC(c1ccnc3ccc(F)cc13)CC2` (single isomer, unassigned) [Compound 11-5, N-(4-chlorophenyl)-6-(6-fluoroquinolin-4-yl)-1-methylspiro[2.5]octane-1-carboxamide] and `O=C(Nc1ccc(Cl)cc1)C1CC2(CCC(c3ccnc4ccc(F)cc34)CC2)C1` (single isomer, unassigned) [Compound 16-7, N-(4-chlorophenyl)-7-(6-fluoroquinolin-4-yl)spiro[3.5]nonane-2-carboxamide] cannot be ordered by pIC50: over 7.00 for the first, over 7.00 for the second.

Going from `CC1(C(=O)Nc2ccc(Cl)cc2)CC12CCC(c1ccnc3ccc(F)cc13)CC2` (single isomer, unassigned) [Compound 11-6, N-(4-chlorophenyl)-6-(6-fluoroquinolin-4-yl)-1-methylspiro[2.5]octane-1-carboxamide] to `O=C(Nc1ccc(Cl)cc1)C1CC2(CCC(c3ccnc4ccc(F)cc34)CC2)C1` (single isomer, unassigned) [Compound 16-8, N-(4-chlorophenyl)-7-(6-fluoroquinolin-4-yl)spiro[3.5]nonane-2-carboxamide], the pIC50 falls from over 7.00 to under 6.00. The first is the more potent here.

First: O=C(Nc1ccc(Cl)cc1)C1CC12CCN(c1ccnc3ccc(F)cc13)CC2 (single isomer, unassigned) [Compound 12-6, N-(4-chlorophenyl)-6-(6-fluoroquinolin-4-yl)-6-azaspiro[2.5]octane-1-carboxamide]
Second: O=C(Nc1ccc(C2CC2)cc1)[C@H]1C[C@]12CC[C@H](c1ccnc3ccc(F)cc31)CC2 [Compound 1-13]
The pIC50 of the first is higher: over 7.00 for the first, 6.00 to 7.00 for the second.

`O=C(Nc1ccc(Cl)cc1)C1CC12CCN(c1ccnc3ccc(F)cc13)CC2` (single isomer, unassigned) [Compound 12-7, N-(4-chlorophenyl)-6-(6-fluoroquinolin-4-yl)-6-azaspiro[2.5]octane-1-carboxamide] and `O=C(Nc1ccc(C(F)(F)F)cn1)[C@H]1C[C@]12CC[C@H](c1ccnc3ccc(F)cc31)CC2` (stereo in doubt) [Compound 3-2, 6-(6-fluoroquinolin-4-yl)-N-(5-(trifluoromethyl)pyridin-2-yl)spiro[2.5]octane-1-carboxamide] cannot be ordered by pIC50: under 6.00 for the first, under 6.00 for the second.
